This note sets out measurements from patent US10766882B2, “1,2-naphthoquinone based derivative and method of preparing the same” (YUNGJIN PHARM. CO., LTD., priority 2013, dated 2020).

The target of one experiment is NQO1 protein (Homo sapiens, UniProt P15559). Description: NQO1 activity measurement (cytochrome C reduction). The following applies: 5 ng NQO1 protein, 200 μM NADH, 77 μM cytochrome C, 37° C., absorbance 550 nm for 10 minutes. In kind it is biochemical.
The test system of experiment [1] is C57BLKS/J db/db mice. The experiment can be described thus: Weight loss effects and blood sugar in diabetic mice (db/db). In kind it is in vivo. The following applies: four weeks, vs 0.1% SLS controls. As to the method:
(§1) 7 week-old C57BLKS/J db/db mice (chales river laboratories Japan, Inc) having genetic diabetic characteristics available from ORIENTBIO were prepared. Two mice were raised in each polycarbonate breeding cage (200 W×260 L×130H (mm), Three-shine) in which temperature was 22 to 24° C., relative humidity was 30 to 50%, illuminance was 150 to 300 lux, night and day were 12 hours, and exhaust was performed at 10 to 15 air changes per hour. As a feed, low fat diet (11.9 kcal % fat, 5053, Labdiet) manufactured by ORIENTBIO was used. The feed was contained in a feeder and free intake was allowed. As drinking water, water, which was contained in a 250 mL polycarbonate based bottle, purified through a filter and a sterilizer was used and free intake was allowed.
The compound according to Example 1 synthesized in the present invention was orally administered to three C57BLKS/J db/db mice in amounts of 40 mg/kg, 80 mg/kg, and 120 mg/kg, respectively, once every day for four weeks. For administration, a disposable syringe fitted with a sonde for oral administration was used and 10 ml/kg of the compound was orally administered into the stomach. As controls, three C57BLKS/J db/db mice were administered 0.1% SLS in an amount of 120 mg/kg in the same manner as described above. After administration, a time-dependent weight increase ratio, weight change, and intake amount were measured and results are illustrated in FIG. 7 below. In addition, blood sugar was measured and results are illustrated in FIG. 8 below.
Weights of the experimental animals were measured immediately before administration of a test material and six times a week from an administration initiation day to a test termination day. Increased total weights were calculated by subtracting weights measured on an experiment initiation day from weights measured one day before an experiment termination day. Food intake amounts were calculated by measuring feed supply amounts and remaining amounts twice a week from an initiation day of test material administration to a test termination day for each individual. Blood sugar was measured before an administration initiation day of the test material and once a week between an administration initiation day and a test termination day.

Experiment [2] concerns C57BLKS/J db/db mice. The experiment can be described thus: Glucose level and glycosylated hemoglobin (Hb1Ac) in fasted diabetic mice (db/db). Format: in vivo. The following applies: Exp. Ex. 5, FIG. 9: 10 week-old db/db mice, 40, 80, 120 mg/kg oral, fasted for 14 hours, vs 0.1% SLS controls. As to the method:
as §1, with “10 week-old” for “7 week-old”, “mice” for “mice (chales river laboratories Japan, Inc)”, “genetic obesity” for “genetic diabetic”
The compound according to Example 1 synthesized in the present invention was orally administered to three C57BLKS/J db/db mice in amounts of 40 mg/kg, 80 mg/kg, and 120 mg/kg, respectively. For administration, a disposable syringe fitted with a sonde for oral administration was used and 10 ml/kg of the compound was orally administered into the stomach. As controls, three C57BLKS/J db/db mice were administered 0.1% SLS in an amount of 120 mg/kg in the same manner as described above. After administration, the mice were fasted for 14 hours and glucose levels and glycosylated hemoglobin thereof were measured. Results are illustrated in FIG. 9 below.

Where [3] appears, read: Exp. Ex. 4, FIG. 7: 7 week-old db/db mice, 40, 80, 120 mg/kg oral once every day.

NQO1 protein, sequence (P15559 whole entry, species assumed): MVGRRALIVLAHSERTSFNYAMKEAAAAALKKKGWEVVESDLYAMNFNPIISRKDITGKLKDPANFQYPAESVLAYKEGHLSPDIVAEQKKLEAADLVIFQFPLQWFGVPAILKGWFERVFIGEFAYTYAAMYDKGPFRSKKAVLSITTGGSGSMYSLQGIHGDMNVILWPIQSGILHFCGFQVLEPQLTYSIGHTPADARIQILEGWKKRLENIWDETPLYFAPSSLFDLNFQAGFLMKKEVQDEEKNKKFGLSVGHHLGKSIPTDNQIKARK

For `CC(C)c1nc2c([nH]1)C(=O)C(=O)c1ccccc1-2` [Example 1, 2-isopropyl-1H-naphtho[2,1-d]imidazole-4,5-dione], on NQO1 protein, the “NQO1 activity (5 μM, [nmol cytochrome C reduced/min/μg protein])” value is listed as 177 nmol cytochrome C reduced/min/μg protein. In addition, in the experiment with C57BLKS/J db/db mice [1] (setting [3]), the intake amount entry is “significantly decreased”, the weight change result is “significantly decreased” and the weight increase ratio entry is “significantly decreased”. Besides, in the experiment with C57BLKS/J db/db mice [1] (Exp. Ex. 4, FIG. 8: 7 week-old db/db mice, 40, 80, 120 mg/kg oral once every day, measured once a week), the blood sugar amount result is on record as “significantly decreased”. Moreover, in the experiment on C57BLKS/J db/db mice [2], the glucose level result is “significantly decreased” and the “glycosylated hemoglobin (Hb1Ac)” value is on record as “significantly decreased”.
